According to patent US20050192240A1, “Methods and compositions relating to expression factors” (priority 2004, published 2005):
Values after ≈ are worked out from the molar mass of the structure shown. Like-named read-outs stand apart in the source and are kept apart here.

Tests used:
Assay type in all cases: cell-based
S. cerevisiae = experiment: Etest antifungal strip susceptibility of S. cerevisiae strains; settings: for MIC: Saccharomyces cerevisiae, SD plate, 30° C., read-out: minimum inhibitory concentration (MIC)
Excerpt: The effect on drug susceptibility by overexpression of CaNdt80p and its S. cerevisiae homolog, Ndt80p, were compared using the antifungal strips, Etest (AB BIODISK, Solna, Sweden) (Arendrup et al., J. Antimicrob. Chemother. 47:521-526, 2001; Chang et al., J. Clin. Microbiol 39:1328-1333, 2001). S. cerevisiae Ndt80p was identified as a meiosis specific transcription factor (Chu et al., Science 282:699-705, 1998; Chu and Herskowitz, Mol. Cell 1:685-696, 1998). Ndt80p is autoregulated and activates its targets through a mid-sporulation element consensus site (MSE: gNCRCAAAA/T) in the target (Chu and Herskowitz, Mol. Cell 1:685-696, 1998). Expression of the NDT80 gene is repressed during vegetative growth (Xu et al., Mol. Cell Biol. 15:6572-6581, 1995; Pak and Segall, Mol. Cell Biol. 22:6417-6429, 2002).
First, homogenized isolated colonies from an overnight SD plate were transferred into a 0.85% NaCl solution to achieve a suspension containing 5×10^6 cells/ml. A sterile swab was dipped into the inoculum suspension and the entire agar surface of an SD plate was streaked evenly with the swab. The plates were allowed to dry until all excess moisture was completely absorbed, and the Etest strips (AB BIODISK, Solna, Sweden) were applied onto each plate. The plates were incubated at 30° C. and were photographed after 3 days of growth. These Etest strips tested the susceptibility to ketoconazole (0.002-32 μg/ml) (KE) and fluconazole (0.016-256 μg/ml) (FL). Susceptibility is indicated by a clear ring around the antifungal strips where growth has been inhibited. Degree of susceptibility is indicated by the size of the ring. The strains tested were the NDT80/NDT80 wild type S. cerevisiae strain transformed with the control vectors 2μ-URA3and CEN-LEU2 (Christianson et al., Gene 110:119-122, 1992; Sikorski and Hieter, Genetics 122:19-27, 1989) (designated as strain SLO16) (“NDT80/NDT80” lane in FIG. 6); a ndt80/ndt80 homozygous mutant transformed with the control 2μ-URA3 vector (designated as strain SLO14) (“ndt80/ndt80 2μ vector” lane in FIG. 6); a ndt80/ndt80 homozygous mutant transformed with the 2μ-URA3-NDT80 plasmid, LOB46 (designated as strain SLO13) (“ndt80/ndt80 2μ NDT80” lane in FIG. 6); and a ndt80/ndt80 homozygous mutant transformed with the 2μ-URA3-CaNDT80 plasmid, LOB44 (designated as strain SLO15) (“ndt80/ndt80 2μ CaNDT80” lane in FIG. 6).
In a separate experiment, a strain harboring the LOB44 plasmid without the NDT80 gene was tested in the Etest.

C. albicans [1] = experiment: Etest antifungal strip susceptibility of C. albicans strains
Description: The three C. albicans strains SC5314 (wild type), YLO133 (homozygous mutant Candt80/Candt80) and YLO137 (rescued strain of YLO133 with one copy of CaNDT80), were also tested for susceptibility to five different drugs using the Etest. Five different antifungal strips (AB BIODISK, Solna, Sweden) were used: amphotericin B at 0.002-32 μg/ml (AP), 5-fluorocytosine at 0.002-32 μg/ml (FC), fluconazole at 0.016-256 μg/ml (FL), itraconazole at 0.002-32 μg/ml (IT) and ketoconazole at 0.002-32 μg/ml (KE). Each strain was grown overnight on an SD plate and homogenized colonies from the plate were transferred into 0.85% NaCl to achieve a suspension of about 5×10^6 cells/ml. A sterile swab was dipped into the inoculum suspension and the entire agar surface of a SD plate was evenly streaked. Each plate was dried until excess moisture was completely absorbed and each of the five different Etest strips were applied onto each plate. The plates were incubated at 30° C. and were photographed after 2 days of growth. Susceptibility to a drug is indicated by a clear inhibition zone around the antifungal strip where growth has been inhibited. Degree of susceptibility is indicated by the size of the ring.

C. albicans [2] = experiment: Agar dilution assay of C. albicans strains; settings: Candt80/Candt80 mutant versus wild-type or rescued strain; fluconazole 25 μg/ml, voriconazole 1 μg/ml
Description: The cdr1/cdr1 homozygous mutant was constructed according to Sanglard et al., Antimicrob. Agents Chemother. 40:2300-2305, 1996. Fluconazole and voriconazole were prepared to a final concentration of 25 μg/ml and 1 μg/ml, respectively in dimethylsulfoxide (DMSO). C. albicans cells grown on media containing DMSO and in the absence of drug, was used as the control. C. albicans cells were diluted to an OD600 of 2 (corresponding to approximately 2×10^7cells/ml) and 0.5 μl was spotted onto plates containing either fluconazole (25 μg/ml) or voriconazole (1 μg/ml) using a replica device (Oxoid Inc., Canada). Cells were also prepared and spotted in 10-fold serial dilutions (10^4 to 10 cells).

C. albicans [3] = experiment: RT-PCR of CDR1 and CaNDT80 mRNA with or without miconazole; settings: miconazole 100 μg/ml, one hour, 30° C.; strains SC5314, YLO133, YLO137
Description: C. albicans strains SC5314 (wild type), YLO133 (homozygous mutant Candt80/Candt80) and YLO137 (rescued strain of YLO133 with one copy of CaNDT80), were grown in the presence or absence of the antifungal agent, miconazole (Sigma) at 100 μg/ml for one hour at 30° C. The level of mRNAs of TEF3 (control), CDR1, and CaNDT80, was measured by reverse transcriptase polymerase chain reaction (RT-PCR). […] Lanes 2-4 and 11-13 represent mRNA from YLO133 (homozygous mutant), lanes 5-7 and 14-16 represent mRNA from YLO137 (rescued mutant), and lanes 8-10 and 17-19 represent mRNA from the wild-type strain, SC5314. Lanes 2, 5, 8, 11, 14, and 17 were tested for TEF3 mRNA (internal control); lanes 3, 6, 9, 12, 15, and 18, were tested for CDR1 mRNA; and lanes 4, 7, 10, 13, 16, and 19 were tested for CaNDT80 mRNA. As expected, no CaNDT80 mRNA was detected in the homozygous mutant (FIG. 9, lanes […] and 13). In contrast, CaNDT80 mRNA was detected in the wild-type strain during vegetative growth (FIG. 9, lanes 10 and 19), unlike its homolog NDT80 in S. cerevisiae.

[4] = S. cerevisiae overexpressing CaNDT80 (LOB44 plasmid)
[5] = S. cerevisiae transformed with control vector
[6] = homozygous mutant Candt80/Candt80 (YLO133) compared with wild type SC5314, 2 days

| SMILES | MIC (S. cerevisiae; [4]) [µg/mL] | MIC (S. cerevisiae; [5]) [µg/mL] | drug susceptibility (inhibition zone) (C. albicans [1]; [6]) | susceptibility (growth on drug plates) (C. albicans [2]) | also measured |
| --- | --- | --- | --- | --- | --- |
| CC(=O)N1CCN(c2ccc(OCC3COC(Cn4ccnc4)(c4ccc(Cl)cc4Cl)O3)cc2)CC1 (stereo not drawn) [ketoconazole] | ≥ 32 | 6 (≈ 11.3 µM) | increased susceptibility | – | drug susceptibility (inhibition zone) (S. cerevisiae; ndt80/ndt80 2μ CaNDT80 compared with NDT80/NDT80 S. cerevisiae, 3 days): decreased |
| OC(Cn1cncn1)(Cn1cncn1)c1ccc(F)cc1F [fluconazole] | 64 (≈ 209 µM) | 24 (≈ 78.4 µM) | increased susceptibility | more susceptible | drug susceptibility (inhibition zone) (C. albicans [1]; rescued strain YLO137 (one copy of CaNDT80) compared with wild type SC5314, 2 days): more susceptible |
| C[C@@H](c1ncncc1F)[C@](O)(Cn1cncn1)c1ccc(F)cc1F [voriconazole] | – | – | – | more susceptible | – |
| Clc1ccc(COC(Cn2ccnc2)c2ccc(Cl)cc2Cl)c(Cl)c1 (stereo not drawn) [miconazole] | – | – | – | – | patterns of TEF3, CDR1 and CaNDT80 mRNA with versus without treatment (C. albicans [3]): comparable |
| Nc1nc(=O)[nH]cc1F [5-fluorocytosine] | – | – | increased susceptibility | – | – |
